Data published in US20220363673A1, “5-(Thiophen-2-YL)-1 H-Tetrazole Derivative as BCKDK Inhibitors Useful for Treating Various Diseases” (Pfizer Inc., priority 2019, published 2022).
Structures can show the parent of a compound that is named as a salt.

target: T1, human BCKDK (Homo sapiens, UniProt O14874); assay: In Vitro FRET (TR-FRET) BCKDK activity assay, phosphorylation of BCKDHE1α-E2 fusion substrate; type: biochemical; settings: geometric mean, two significant figures; 15 μM ATP
T1 construct: human BCKDK (residues 31-412 of the protein pre-processing); 6xHis (N, cleaved yes); MBP (N, cleaved yes); TEV protease site (ENLYFQG) (N, cleaved yes); made in house; host or cells: BL21(DE3) E. coli, co-expressed with GroEL-GroES
Description: BCKDK protein was generated using a pET vector containing from N- to C-terminus: 6×His, MBP, a TEV protease site (ENLYFQG), a biotin acceptor peptide ([…]), and human BCKDK (residues 31-412 of the protein pre-processing). Protein was co-expressed with GroEL-GroES in BL21(DE3) E. coli in LB media, and protein production was induced with 0.5 mM IPTG and 0.5 mg/mL L-arabinose at an OD600 of 1 and grown for 16 h at 26° C. Bacteria were lysed using a Microfluidizer in 100 mM potassium phosphate pH 7.5, 500 mM NaCl, 0.1 mM EDTA, 1% Tween-20, 0.25% Triton X-100, 10% glycerol, 1 mM DTT, and protease inhibitors. MBP-tagged protein was purified by affinity chromatography using amylose resin, and MBP was removed from BCKDK by TEV protease incubation followed by gel filtration chromatography in 50 mM HEPES pH 7.5, 500 mM NaCl, 300 mM L-Arginine, 2 mM MgCl2, 1 mM DTT, and 10% glycerol.
A pET vector containing E. coli LplA was expressed in BL21(DE3) E. coli in LB media, and protein production was induced with 0.75 mM IPTG at an OD600 of 1 and grown for 16 h at 30° C. Bacteria were lysed using a Microfluidizer in 50 mM sodium phosphate buffer pH 7.5, 350 mM NaCl, 1.5 mM MgCl2, and 1 mM DTT. LplA protein was precipitated from clarified lysate with 1 M ammonium sulfate and further purified by gel filtration chromatography in 50 mM sodium phosphate pH 7.5, 350 mM NaCl, 1.5 mM MgCl2, 1 mM DTT, and 10% glycerol.
The BCKDHE1α-E2 fusion substrate was cloned into a pET vector and contained from N- to C-terminus: the lipoyl binding domain of E2 (residues 62-160 pre-processing), a TEV protease site (LENLYFQG), residues 331-345 (pre-processing) from E1α, and 6×His (Tso, S. C. et al., J Biol Chem 2014, 289 (30), 20583-20593). The fusion substrate was expressed in BL21(DE3) E. coli in LB media, and protein production was induced with 0.75 mM IPTG at an OD600 of 1 and grown for 16 h at 30° C. Bacteria were lysed using a Microfluidizer in 50 mM sodium phosphate pH 7.5, 350 mM NaCl, 10 mM imidazole, 10% glycerol, 1 mM DTT, and protease inhibitors. […] For lipoylation, fusion substrate was incubated with LplA at a 10:1 (substrate:LplA) ratio in 20 mM sodium phosphate pH 7.4, 6 mM MgCl2, 4 mM ATP, 2 mM DTT, 3 mM DL-6,8-thioctic acid at 37° C. The reaction was monitored using an Agilent 6530 Q-TOF coupled to an Agilent 1290 UPLC. The final lipoylated fusion substrate was purified by gel filtration chromatography in 50 mM HEPES pH 7.5, 350 mM NaCl, 1.5 mM MgCl2, 1 mM DTT, 10% glycerol.
BCKDK activity was monitored by phosphorylation of a HIS-tagged fusion BCKDHE1α-E2 substrate protein as described above and was detected using a time resolved-fluorescence resonance energy transfer (TR-FRET) assay system. Compounds were spotted into a 384 well plate, and purified human BCKDK protein was added to the plated compound. After incubation, the LBD-linker-E1 phosphorylation sequence was added in the presence of 15 μM ATP. The reaction was terminated with EDTA. Phosphorylated substrate was recognized by the addition of rabbit anti-E1 phospho Ser293 antibodies (Bethyl Laboratories—A304-672A), and the TR-FRET signal was developed by addition of anti-HIS donor molecules (Europium; Perkin Elmer—AD0205, AD0110, AD0111) and anti-Rabbit acceptor molecules (Ulight; Perkin Elmer—TRF502D, TRF502M, TRF502R). Recognition of phosphorylated E1 brought donor and acceptor molecules into close proximity, and excitation at 320 nm caused energy transfer from the Europium donor to the Ulight acceptor dye, which in turn generated light at 665 nm. Signal intensity was proportional to the level of BCKDK-mediated substrate phosphorylation. Reactions were normalized to zero percent effect with DMSO and one hundred percent effect with 600 μM Radicicol, a known BCKDK inhibitor. IC50 curves were generated using ABASE software (IDBS, Boston Mass.).

**Q.** `Clc1ccsc1-c1nnn[nH]1` [Example 7, 5-(3-chlorothiophen-2-yl)-1H-tetrazole] was tested. Which IC50 did it give?
**A.** Its IC50 is 11 µM.

**Q.** With `Fc1cc(Br)c(-c2nnn[nH]2)s1` [Example 34, 5-(3-bromo-5-fluorothiophen-2-yl)-1H-tetrazole] as the molecule, how does the IC50 read?
**A.** Its IC50 is 2.7 µM.

**Q.** With `FC(F)(F)c1ccsc1-c1nnn[nH]1` [Example 22, 5-[3-(trifluoromethyl)thiophen-2-yl]-1H-tetrazole] as the molecule, how does the IC50 read?
**A.** The IC50 was 11 µM.

**Q.** Which IC50 does the source give for `Fc1ccsc1-c1nnn[nH]1` [Example 28, 5-(3-fluorothiophen-2-yl)-1H-tetrazole] here?
**A.** Its IC50 is 16 µM.

**Q.** `COc1ccsc1-c1nnn[nH]1` [Example 24, 5-(3-methoxythiophen-2-yl)-1H-tetrazole] was tested. Which IC50 did it give?
**A.** The IC50 was greater than 300 µM.

**Q.** Which IC50 does the source give for `Oc1cc(Br)sc1-c1nnn[nH]1` [Example 15, 5-bromo-2-(1H-tetrazol-5-yl)thiophene-3-ol] here?
**A.** The IC50 was 13 µM.

**Q.** Which IC50 does the source give for `COc1cc(Br)sc1-c1nnn[nH]1` [Example 16, 5-(5-bromo-3-methoxythiophen-2-yl)-1H-tetrazole] here?
**A.** Its IC50 is 4.5 µM.

**Q.** Which IC50 does the source give for `CCc1c(Br)csc1-c1nnn[nH]1` [Example 4, 5-(4-Bromo-3-ethylthiophen-2-yl)-1H-tetrazole, ammonium salt] here?
**A.** Its IC50 is 1.1 µM.

**Q.** For `Cc1c(-c2nnn[nH]2)sc(Cl)c1Cl` [Example 11, 5-(4,5-Dichloro-3-methylthiophen-2-yl)-1H-tetrazole], which IC50 is on record?
**A.** Its IC50 is 1.9 µM.

**Q.** `c1cc(C2CC2)c(-c2nnn[nH]2)s1` [Example 26, 5-(3-cyclopropylthiophen-2-yl)-1H-tetrazole] was tested. Which IC50 did it give?
**A.** The IC50 was greater than 300 µM.

**Q.** How did the IC50 turn out when `CCc1cc(C)c(-c2nnn[nH]2)s1` [Example 32, 5-(5-ethyl-3-methylthiophen-2-yl)-1H-tetrazole] was run?
**A.** The IC50 was 15 µM.

**Q.** `Cc1c(-c2nnn[nH]2)sc(Cl)c1F` [Example 10, 5-(5-Chloro-4-fluoro-3-methylthiophen-2-yl)-1H-tetrazole] was tested. Which IC50 did it give?
**A.** Its IC50 is 0.81 µM.

**Q.** With `CCc1ccsc1-c1nnn[nH]1` [Example 25, 5-(3-ethylthiophen-2-yl)-1H-tetrazole] as the molecule, how does the IC50 read?
**A.** The IC50 was 9.8 µM.

**Q.** Which IC50 does the source give for `Cc1cc(C(F)F)sc1-c1nnn[nH]1` [Example 21, 5-[5-(difluoromethyl)-3-methylthiophen-2-yl]-1H-tetrazole] here?
**A.** Its IC50 is 3.6 µM.

**Q.** With `Clc1cc(Cl)c(-c2nnn[nH]2)s1` [Example 12, 5-(3,5-Dichlorothiophen-2-yl)-1H-tetrazole, ammonium salt] as the molecule, how does the IC50 read?
**A.** The IC50 was 2 µM.

**Q.** With `Clc1cc(Br)sc1-c1nnn[nH]1` [Example 8, 5-(5-Bromo-3-chlorothiophen-2-yl)-1H-tetrazole] as the molecule, how does the IC50 read?
**A.** Its IC50 is 3.4 µM.

**Q.** `Clc1cc(C2CC2)c(-c2nnn[nH]2)s1` [Example 29, 5-(5-chloro-3-cyclopropylthiophen-2-yl)-1H-tetrazole] was tested. Which IC50 did it give?
**A.** The IC50 was 10 µM.

**Q.** `CCc1c(Cl)csc1-c1nnn[nH]1` [Example 3, 5-(4-Chloro-3-ethylthiophen-2-yl)-1H-tetrazole, ammonium salt] was tested. Which IC50 did it give?
**A.** The IC50 was 1.1 µM.

**Q.** Which IC50 does the source give for `Cc1cc(Cl)c(-c2nnn[nH]2)s1` [Example 14, 5-(3-chloro-5-methylthiophen-2-yl)-1H-tetrazole] here?
**A.** Its IC50 is 2.6 µM.

**Q.** For `Cc1cc(F)sc1-c1nnn[nH]1` [Example 2, 5-(5-Fluoro-3-methylthiophen-2-yl)-1H-tetrazole], which IC50 is on record?
**A.** Its IC50 is 3.6 µM.

**Q.** `Brc1csc(-c2nnn[nH]2)c1Br` [Example 17, 5-(3,4-dibromothiophen-2-yl)-1H-tetrazole] was tested. Which IC50 did it give?
**A.** The IC50 was 6.1 µM.

**Q.** `Fc1cc(Cl)c(-c2nnn[nH]2)s1` [Example 31, 5-(3-chloro-5-fluorothiophen-2-yl)-1H-tetrazole] was tested. Which IC50 did it give?
**A.** Its IC50 is 3.6 µM.

**Q.** With `Fc1cc(Cl)sc1-c1nnn[nH]1` [Example 30, 5-(5-chloro-3-fluorothiophen-2-yl)-1H-tetrazole] as the molecule, how does the IC50 read?
**A.** The IC50 was 2.9 µM.

**Q.** With `CCc1cc(Br)c(-c2nnn[nH]2)s1` [Example 13, 5-(3-Bromo-5-ethylthiophen-2-yl)-1H-tetrazole] as the molecule, how does the IC50 read?
**A.** The IC50 was greater than 83 µM.

**Q.** For `Cc1ccsc1-c1nnn[nH]1` [Example 36, 5-(3-methylthiophen-2-yl)-1H-tetrazole], which IC50 is on record?
**A.** The IC50 was 6 µM.

**Q.** For `Cc1cc(C(F)(F)F)sc1-c1nnn[nH]1` [Example 20, 5-[3-methyl-5-(trifluoromethyl)thiophen-2-yl]-1H-tetrazole], which IC50 is on record?
**A.** The IC50 was 3.7 µM.

**Q.** For `Cc1cc(Br)sc1-c1nnn[nH]1` [Example 33, 5-(5-bromo-3-methylthiophen-2-yl)-1H-tetrazole], which IC50 is on record?
**A.** Its IC50 is 3.1 µM.

**Q.** With `Brc1ccsc1-c1nnn[nH]1` [Example 35, 5-(3-bromothiophen-2-yl)-1H-tetrazole] as the molecule, how does the IC50 read?
**A.** Its IC50 is 1.4 µM.

**Q.** `Cc1c(-c2nnn[nH]2)sc(Br)c1Br` [Example 18, 5-(4,5-dibromo-3-methylthiophen-2-yl)-1H-tetrazole] was tested. Which IC50 did it give?
**A.** The IC50 was 4.5 µM.

**Q.** `Oc1ccsc1-c1nnn[nH]1` [Example 37, 2-(1H-tetrazol-5-yl)thiophene-3-ol] was tested. Which IC50 did it give?
**A.** The IC50 was 13 µM.

**Q.** For `FC(F)c1cc(Cl)sc1-c1nnn[nH]1` [Example 6, 5-[5-Chloro-3-(difluoromethyl)thiophen-2-yl]-1H-tetrazole], which IC50 is on record?
**A.** The IC50 was 1.1 µM.

**Q.** With `CCc1cc(Cl)sc1-c1nnn[nH]1` [Example 27, 5-(5-chloro-3-ethylthiophen-2-yl)-1H-tetrazole] as the molecule, how does the IC50 read?
**A.** The IC50 was 4 µM.

**Q.** For `Clc1cc(Br)c(-c2nnn[nH]2)s1` [Example 19, 5-(3-bromo-5-chlorothiophen-2-yl)-1H-tetrazole], which IC50 is on record?
**A.** The IC50 was 4.1 µM.

**Q.** With `FC(F)c1ccsc1-c1nnn[nH]1` [Example 5, 5-[3-(Difluoromethyl)thiophen-2-yl]-1H-tetrazole] as the molecule, how does the IC50 read?
**A.** The IC50 was 2.5 µM.

**Q.** How did the IC50 turn out when `FC(F)(F)c1cc(Cl)sc1-c1nnn[nH]1` [Example 23, 5-[5-chloro-3-(trifluoromethyl)thiophen-2-yl]-1H-tetrazole] was run?
**A.** Its IC50 is 7.2 µM.
